Experimental data taken from PMC5063576, “High Potency VEGFRs/MET/FMS Triple Blockade by TAS-115 Concomitantly Suppresses Tumor Progression and Bone Destruction in Tumor-Induced Bone Disease Model with Lung Carcinoma Cells” (PLoS ONE, 2016).

Assays:
A549-Luc-BM1 cells = test: Proliferation of A549-Luc-BM1 cells (CellTiter-Glo); type: cell-based; details: Homo sapiens, 72 hr post drug addition, read-out: 50% growth inhibitory concentration (GI50) for A549-Luc-BM1 cells
Procedure: Supplementary file pone.0164830.s002.tif: S2 Fig The effect of TAS-115 on the proliferation of A549-Luc-BM1 cells. A549-Luc-BM1 cells were seeded on 96 well plates at a density of 10^3 cells/well in RPMI1640 containing 10% FBS. […] At 72 hr post drug addition, cell viability was determined using CellTiter-Glo^TM. The 50% growth inhibition (GI50) values were determined using SAS version 9.2. (TIF) Click here for additional data file.

[1] = system: A549-Luc-BM1-implanted tibiae; test: CD31 staining, microvessel density in bone lesion; type: in vivo, BALB/c nude mice; details: 2 weeks oral; TAS-115 100 mg/kg, cabozantinib 15, crizotinib 100, sunitinib 40 mg/kg; vs control
Procedure: On day 15, the mice were euthanized by cervical dislocation under isoflurane anesthesia, and their tibiae were collected. For CD31 staining, frozen sections (3 μm thick) were prepared using Kawamoto’s film method. Purified Rat Anti-Mouse CD31 (1:100, BD Pharmingen^TM) was detected using Simple Stain^TM Mouse MAX PO (Rat) (Nichirei) and 3,3’-diaminobenzidine (Dako, Glostrup, Denmark). For Ki-67 and TRAP staining, formalin-fixed paraffin-embedded sections (2 μm thick) were prepared. Anti-human Ki-67 Rabbit Monoclonal Antibody (1:50, Epitomics) was detected using the EnVisionTM^+ System (Dako). TRAP staining was performed using the TRAP/ALP Stain Kit (Wako Pure chemical Industries, Ltd.). To quantify each staining, whole slides were scanned under 20× magnification with the Aperio Scan-Scope XT Slide Scanner (Aperio Technologies, Inc., CA). To quantify CD31-positive microvessels as microvessel density (MVD, number/mm^2), four fields of tumor area per section excluding bone and necrotic tissue were analyzed by using Image-Pro Plus (Media Cybernetics, Inc., Carlsbad, CA). The mean values of the four areas were considered as the MVD of each animal. […] Ki-67-positive cells and total tumor cells were counted by using Image-Pro Plus. The Ki-67 index is expressed as a percentage (the number of Ki-67-positive tumor cells / the total number of the tumor cells × 100). The numbers of TRAP-positive osteoclasts were counted, and are expressed as the TRAP-positive osteoclast labeling index, (the number of TRAP-positive cells / the length of the boundary between tumor and trabecular bone (number/mm)). Cells that were TRAP-positive, had more than one nucleus, and were found on the surface of the bone, were identified as osteoclasts. The boundary length was calculated by Image-Pro Plus. All histopathological analyses were conducted in a blinded manner.

[2] = system: FMS phosphorylation in human acute monocytic THP-1 leukemia cells; test: M-CSF-induced FMS phosphorylation in THP-1 cells (immunoblotting); type: cell-based; details: 2 h, 120 min compound incubation, 30 ng/mL M-CSF, read-out: cellular IC50 against M-CSF-induced FMS phosphorylation
Procedure: Supplementary file pone.0164830.s005.tif: S5 Fig The inhibition of the FMS signaling pathway in human acute monocytic leukemia THP-1 cells by TAS-115. […] After incubation with the compounds for 120 min, THP-1 cells were stimulated with 30 ng/mL of M-CSF and lysed at 1 min post M-CSF stimulation. Specific proteins in the cell lysates were detected using immune blotting and were quantified using Multi Gauge Ver 3.2 (FUJIFILM). IC50 values were calculated using Xlfit 5.3.0.8 (CTC Life Science Corporation, Tokyo, Japan). (TIF) Click here for additional data file.

[3] = system: A549-Luc-BM1 cells in the mouse tibia; test: Tumor-induced bone disease model, intra-tibial A549-Luc-BM1, bioluminescence imaging; type: in vivo, BALB/c nude mice; details: day 28; 4 weeks; oral once daily TAS-115 200 mg/kg, cabozantinib 15 mg/kg, sunitinib 40 mg/kg, crizotinib 100 mg/kg; ZA 0.2 mg/kg s.c. twice weekly
Procedure: Tumor growth in the tibiae was monitored by bioluminescence imaging using an IVIS Lumina II Imaging System (PerkinElmer, MA). […] Images were analyzed using the Living Image 3.1 software (PerkinElmer). Total photon flux (TP) was calculated by summation of the photon flux of ventral and right lateral images. One week post tumor implantation, 8–9 animals were allocated to each experimental group by a stratified randomization method with SAS version 9.2 (SAS Institute Japan, Tokyo, Japan) using TP as an allocation parameter, following which drug treatment was then started. […] The doses of each drug were selected based on the maximum tolerated dose (MTD) in in-house studies (data not shown). […] Zoledronic acid (ZA) was subcutaneously injected twice weekly for 4 weeks at a dose of 0.2 mg/kg, which was a previously reported efficacious dose. The allocation day was set as day 0, and drug administration was initiated from day 1. As an indicator of changes in tumor growth during the dosing period, relative total photon flux (RTP), was calculated according to the following formula: RTPday n = (TP on each measurement day) / (TPday 0) × 100. TPday 0 is the TP on the allocation day.

[4] = Body weight change in the bone disease model; type: in vivo, BALB/c nude mice; details: 4 weeks of treatment; TAS-115 200 mg/kg, crizotinib 100 mg/kg, sunitinib 40 mg/kg with crizotinib 100 mg/kg, oral once daily
Procedure: Changes in body weight (BW) during the dosing period were determined using body weight change (BWC; %) as an indicator, which was calculated using the following formula: BWC; % = 100 × ((BW on each measurement day)–(BWday 0)) / (BWday 0). BWday 0 is the BW on the allocation day. The schedule for the in vivo study is depicted in the Supporting Information (S1 Fig).

## CNC(=O)c1cc2c(Oc3ccc(NC(=S)NC(=O)Cc4ccccc4)cc3F)ccnc2cc1OC [TAS-115, 4-[2-fluoro-4-[[[(2-phenylacetyl)amino]thioxomethyl]amino]-phenoxy] -7-methoxy-N-methyl-6-quinolinecarboxamide]
A549-Luc-BM1 cells
  GI50: 11.2 µM
[1]
  microvessel density (MVD) within the tumor area in the bone lesion: significantly reduced
[2]
  IC50: 0.012 µM
[3]
  tumor growth inhibition percentage (TGI): 85%
[4]
  effect on body weight: did not cause body weight loss
